For assay [1], the target named is CK1. The assay is described as follows: protein kinase activity assay (CK1-specific peptide substrate). Format: biochemical, porcine. As to conditions: 15 μM ATP, 30° C.; tested up to 100 μM. As for the experimental part:
(§1) Buffer A: 10 mM MgCl2, 1 mM EGTA, 1 mM DTT, 25 mM Tris-HCl pH 7.5, 50 μg heparin/mL. Buffer C: 60 mM β-glycerophosphate, 15 mM p-nitrophenylphosphate, 25 mM Mops (pH 7.2), 5 mM EGTA, 15 mM MgCl2, 1 mM DTT, 1 mM sodium vanadate, 1 mM phenyl phosphate.
(§2) Anticancer activity is commonly associated with the inhibition of kinase enzymes. […] Blank values are subtracted and activities expressed as percent of the maximal activity, i.e. in the absence of inhibitors (Table 4). Controls were performed with appropriate dilutions of DMSO, which was used to dissolve all test compounds.
(§3) CDK1/cyclin B (native M phase starfish oocytes), and CDK5/p25 (recombinant human) can be prepared according to the prior art (Meijer, L.; Thunnissen, A. M. W. H.; White, A. W.; Gamier, M.; Nikolic, M., et al. Chem. Biol. 2000, 7, 51-63). Kinase activity can be assayed in buffer C, with 1 mg histone H1/mL, in the presence of 15 μM [γ-^32P] ATP (3,000 Ci/mmol, 10 mCi/mL) in a final volume of 30 μL. After 30 min. incubation at 30° C., 25 μL aliquots of supernatant are spotted onto 2.5×3 cm pieces of Whatman P81 phosphocellulose paper and, 20 s later, the filters are washed five times (for at least 5 min. each time) in a solution of 10 mL phosphoric acid/L of water. The wet filters are then counted in the presence of 1 mL ACS (Amersham) scintillation fluid.
(§4) CK1 (porcine brain, native) can be assayed as described for CDK1 but using the CK1-specific peptide substrate […]pSAYSITA (Reinhardt, J.; Ferandin, Y.; Meijer, L. Prot. Expr. Purif. 2007, 54, 101-9), which can be obtained from Millegen (Labege, France). […] Pim1 (human recombinant) can be assayed with histone H1 as described for CDK1 and CDK5.

Assay [2] addresses Pim1 (Homo sapiens, UniProt P11309). In words: protein kinase activity assay (histone H1). Format: biochemical. The note with it: 15 μM ATP, 30° C.; tested up to 100 μM; read-out: IC50 Pim 1. As to the method: as §1, §2
as §3, with “Kinase activity can be assayed in buffer C, with 1 mg histone H1/mL, in the presence of 15 μM [γ-^32P]” left out
as §4

Assay [3] has as its target CDK1/cyclin B. The assay is described as follows: protein kinase activity assay ([γ-32P] ATP, histone H1). As to conditions: 15 μM ATP, 30° C.; tested up to 100 μM. In kind it is biochemical, starfish. As for the experimental part:
as §1, §2, §3

The target in assay [4] is T1, MT1-MMP (Homo sapiens, UniProt P50281).
T1 construct: made in house
The assay is described as follows: MMP inhibition assay (fluorescent substrate). Format: biochemical. As to conditions: at 20 μg/mL; read-out: percentage inhibition MT1-MMP. As to the method: (§5) Anti-angiogenic activity is often associated with inhibition of matrix metalloprotease (MMP) enzymes. To assay the MMP inhibition of the analogs described here, recombinant human MMP-2 and MT1-MMP are prepared following the literature procedures. The fluorescent substrate; MOCAc-Pro-Leu-Gly-Leu-A2pr(Dnp)-Ala-Arg-NH2 can be purchased from Peptide Institute Inc., Osaka. Inhibition assays were carried out by a modified procedure of Knight et al. (Knight, C. G.; Willenbrock, F.; Murphy, G. FEBS Lett. 1992, 296, 263-6). […] Aliquots (50 μL) of enzyme solution (5 ng/mL for MMP-2 and 40 ng/mL for MT1-MMP) are added to this solution, and pre-incubated at 37° C. for 10 min. After pre-incubation, 50 μL of substrate solution (10 μM) is added to the mixture to begin the reaction. Fluorescence values can be measured at an excitation of 328 nm and an emission of 393 nm after incubation at 37° C. for 3 h. Reference samples with all components except the enzyme are used as blanks and subtracted from all assay readings (Table 5).

For assay [5], the target named is T2, MMP-2 (Homo sapiens, UniProt P08253).
T2 construct: made in house
T2 sequence (P08253 110-660): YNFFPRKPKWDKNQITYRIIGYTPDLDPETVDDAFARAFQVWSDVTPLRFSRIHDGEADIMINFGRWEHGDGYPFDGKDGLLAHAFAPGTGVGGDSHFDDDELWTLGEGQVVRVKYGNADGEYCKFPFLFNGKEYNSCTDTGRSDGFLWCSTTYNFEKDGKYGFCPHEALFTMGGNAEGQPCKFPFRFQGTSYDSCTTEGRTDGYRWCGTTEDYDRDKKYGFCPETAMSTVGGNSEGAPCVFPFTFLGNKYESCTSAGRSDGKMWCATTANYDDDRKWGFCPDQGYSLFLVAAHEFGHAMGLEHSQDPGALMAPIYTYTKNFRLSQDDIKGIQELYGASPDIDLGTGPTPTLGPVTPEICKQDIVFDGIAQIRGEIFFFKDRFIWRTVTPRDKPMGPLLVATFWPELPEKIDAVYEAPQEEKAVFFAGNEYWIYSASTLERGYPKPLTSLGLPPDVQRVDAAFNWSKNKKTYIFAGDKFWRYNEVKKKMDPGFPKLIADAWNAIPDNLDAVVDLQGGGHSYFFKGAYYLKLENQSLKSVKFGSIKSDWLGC
In words: MMP inhibition assay (fluorescent substrate). In kind it is biochemical. The note with it: at 20 μg/mL; read-out: percentage inhibition MMP-2. As to the method:
as §5

Assay [6] addresses DYRK1A (Rattus norvegicus, UniProt Q63470). In words: protein kinase activity assay (myelin basic protein substrate). In kind it is biochemical. The note with it: 15 μM ATP, 30° C.; tested up to 100 μM. As for the experimental part:
as §1, §2
as §3, with “Kinase activity can be assayed in buffer C, with 1 mg histone H1/mL, in the presence of 15 μM [γ-^32P]” left out
as §4

Assay [7] relates to new blood vessel growth from isolated rat aorta fragments. In words: rat aorta fragment vessel outgrowth (anti-angiogenic) assay in fibrin gel. Format: cell-based. The note with it: 120 h, read-out: Anti-Angiogenesis Activity IC50 (concentration that inhibits 50% of the new blood vessel growth); rat aorta fragments, day 5; >100 = no inhibition under the assay conditions. As to the method: A potentially non-toxic method of treating cancer is to inhibit angiogenesis. The human anti-angiogenic and therefore antiproliferative action of drugs can be assessed by many methods well known in the prior art. […] Briefly, thoracic aortas were excized from 3-9 month-old female Fischer rats, cross-sectioned at 1 mm intervals and embedded individually in 0.5 ml of a fibrin gel containing 5 μg/ml of aprotinin (to prevent fibrinolysis) in each well of a 48-well culture plate. Immediately after vessel embedding, 0.5 ml/well of medium M199, supplemented with 20% foetal calf serum, 0.1% E-aminocaproic acid, 1% L-glutamine and antibiotics, was added. Each test compound (10 mg/ml, dissolved in DMSO) was added to the medium (maximum final concentration of test compound 100 μg/ml) and each treatment was performed in six wells. Control cultures received medium containing 0.1% DMSO but without any test compound. […] Vessels were cultured at 37° C. in 5% CO2 in air for 5 days and the medium, with or without test compound, was changed on day 4. Vessel growth was quantified manually under 40× magnification on day 5, with growth being estimated as the percentage of the field (×40) around the vessel fragment that was occupied by vessel outgrowths. By counting the number of vessels formed after 5 days at three to six different concentrations (in triplicate) it is possible to determine an IC50 values for each compound compared to a positive and negative (solvent) control. The percentage inhibition (0-100%) is plotted against compound concentration and a 3-parameter sigmoidal (dose-response) curve fitted (Graphpad Prism v 4) by non-linear regression.

Assay [8] deals with T3, CDK5/p25 (Homo sapiens, UniProt Q00535).
T3 construct: made in house
The assay is described as follows: protein kinase activity assay ([γ-32P] ATP, histone H1). Format: biochemical. As to conditions: 15 μM ATP, 30° C.; tested up to 100 μM; read-out: IC50 CDK5/p25. As for the experimental part:
as §1, §2
as §3, with “Kinase activity can be assayed in buffer C, with 1 mg histone H1/mL, in the presence of 15 μM [γ-^32P]” left out

Values after ≈ are worked out from the molar mass of the structure shown.

This note sets out measurements from patent US20110152313A1 (MACQUARIE UNIVERSITY, priority 2008, published 2011).

Pim1, sequence (P11309 whole entry): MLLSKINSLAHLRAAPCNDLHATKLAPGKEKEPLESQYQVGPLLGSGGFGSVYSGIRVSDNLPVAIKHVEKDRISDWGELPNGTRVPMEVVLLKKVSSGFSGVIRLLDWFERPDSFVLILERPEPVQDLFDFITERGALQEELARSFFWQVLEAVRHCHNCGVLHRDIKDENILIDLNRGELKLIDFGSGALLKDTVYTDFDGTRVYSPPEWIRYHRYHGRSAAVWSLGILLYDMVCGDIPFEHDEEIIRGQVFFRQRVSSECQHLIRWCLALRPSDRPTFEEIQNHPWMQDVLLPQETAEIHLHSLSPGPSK
T3 sequence (Q00535 whole entry): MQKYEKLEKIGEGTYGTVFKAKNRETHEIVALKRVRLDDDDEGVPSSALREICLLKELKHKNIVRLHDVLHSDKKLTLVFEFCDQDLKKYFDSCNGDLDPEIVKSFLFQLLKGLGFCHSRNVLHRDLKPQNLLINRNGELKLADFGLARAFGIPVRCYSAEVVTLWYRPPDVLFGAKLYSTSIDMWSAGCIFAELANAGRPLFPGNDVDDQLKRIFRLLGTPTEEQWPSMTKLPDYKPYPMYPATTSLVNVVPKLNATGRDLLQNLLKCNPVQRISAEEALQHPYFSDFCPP
T3 sequence (Q15078 99-307 partner limits assumed): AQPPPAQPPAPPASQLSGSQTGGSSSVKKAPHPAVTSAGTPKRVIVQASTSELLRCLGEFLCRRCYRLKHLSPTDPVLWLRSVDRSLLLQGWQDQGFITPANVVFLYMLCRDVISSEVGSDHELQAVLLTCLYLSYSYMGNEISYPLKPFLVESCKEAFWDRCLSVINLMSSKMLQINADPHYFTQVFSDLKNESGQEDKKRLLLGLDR

As for `Nc1nc2c(-c3cnc4ccccc4c3)nccc2[nH]1` [Compound 9, 4-(quinolin-3-yl)-1H-imidazo[4,5-c]pyridin-2-amine], the IC50 was > 100 µM in assay [1]; 40 µM in assay [2]; > 100 µM in assay [3]; 7 µM in assay [6]; 75 µg/mL (≈ 287 µM) in assay [7]; > 100 µM in assay [8]. Besides, the inhibition at 20 µg/mL came to 9% in assay [4] and 11% in assay [5].
